*1 amine or outer side, *2 acyl side, *3 side chain or, on linkers, in order; H or OH if unused. Where a SMILES comes first, the peptide text is derived from it. [ ]: non-standard residue; d: D form. The star is where a group is joined. AadUreaLys(Nε) = O=C(O)CCC[C@H](NC(=O)N[C@@H](CCCCN*)C(=O)O)C(=O)O; DOTA = O=C(O)CN1CCN(CC(=O)O)CCN(CC(=O)*)CCN(CC(=O)O)CC1; Ala(9-anthryl) = N[C@@H](Cc1c2ccccc2cc2ccccc12)C(=O)O; Butanoyl(4-(4-MeO-phenyl)) = COc1ccc(CCCC(=O)*)cc1; X1 = O=C(C1CCC(CN[*:1])CC1)[*:2]
Key:
[1] = target: T1, Human serum albumin (Homo sapiens, UniProt P02768); experiment: Human serum albumin binding assay (Transil HSA binding kit); conditions: read-out: Human albumin binding affinity (Kd)
T1 construct: purchased Sovicell
Procedure: Human serum albumin binding assay was performed using Transil HSA binding kit (Sovicell) according to manufacturer's recommended procedures.

[2] = target: T2, PSMA (Homo sapiens, UniProt Q04609); experiment: In vitro PSMA competitive binding assay, LNCaP cells, [18F]DCFPyL radioligand; conditions: [18F]DCFPyL 0.1 nM, read-out: PSMA binding affinity (Ki)
T2 construct: endogenous in cells; host or cells: LNCaP cells
Procedure: Inhibition constants (Ki) to PSMA were measured by in vitro competition binding assays using [^18F]DCFPyL as the radioligand. LNCaP cells which were plated onto a 24-well poly-D-lysine coated plate for 48 h (400,000/well). Growth medium was removed and replaced with HEPES buffered saline (50 mM HEPES, pH 7.5, 0.9% sodium chloride). After 1 h, [^18F]DCFPyL (0.1 nM) was added to each well (in triplicate) containing varied concentrations ([…]) of tested compounds The assay mixtures were incubated for 1 h at 37° C. with gentle agitation followed by two washes with cold HEPES buffered saline. A trypsin solution (0.25%, 400 μL) was then added to each well to harvest the cells. Radioactivity was measured by gamma counting and Ki values calculated using the ‘one site—fit Ki’ built-in model in Prism 8 (GraphPad).

T2 sequence (Q04609 whole entry): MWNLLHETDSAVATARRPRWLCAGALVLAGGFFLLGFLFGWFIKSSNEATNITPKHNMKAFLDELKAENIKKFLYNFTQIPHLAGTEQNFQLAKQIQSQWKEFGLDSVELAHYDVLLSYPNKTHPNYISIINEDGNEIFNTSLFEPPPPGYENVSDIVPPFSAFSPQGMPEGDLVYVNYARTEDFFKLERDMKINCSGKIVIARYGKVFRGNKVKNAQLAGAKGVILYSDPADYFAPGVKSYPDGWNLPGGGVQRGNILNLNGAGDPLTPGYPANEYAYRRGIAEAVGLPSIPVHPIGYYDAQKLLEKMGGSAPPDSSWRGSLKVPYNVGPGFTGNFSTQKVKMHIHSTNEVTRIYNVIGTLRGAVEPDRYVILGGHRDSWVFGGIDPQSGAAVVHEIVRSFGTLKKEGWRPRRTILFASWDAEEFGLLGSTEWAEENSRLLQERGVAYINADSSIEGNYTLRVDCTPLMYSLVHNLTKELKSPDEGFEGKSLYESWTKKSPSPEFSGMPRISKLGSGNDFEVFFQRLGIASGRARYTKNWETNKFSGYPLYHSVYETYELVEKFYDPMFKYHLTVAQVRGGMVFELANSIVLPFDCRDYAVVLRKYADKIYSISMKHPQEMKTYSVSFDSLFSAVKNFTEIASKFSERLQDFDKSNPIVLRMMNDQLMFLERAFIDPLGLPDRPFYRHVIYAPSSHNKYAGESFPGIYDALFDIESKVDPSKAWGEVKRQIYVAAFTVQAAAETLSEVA
T1 sequence (P02768 25-609): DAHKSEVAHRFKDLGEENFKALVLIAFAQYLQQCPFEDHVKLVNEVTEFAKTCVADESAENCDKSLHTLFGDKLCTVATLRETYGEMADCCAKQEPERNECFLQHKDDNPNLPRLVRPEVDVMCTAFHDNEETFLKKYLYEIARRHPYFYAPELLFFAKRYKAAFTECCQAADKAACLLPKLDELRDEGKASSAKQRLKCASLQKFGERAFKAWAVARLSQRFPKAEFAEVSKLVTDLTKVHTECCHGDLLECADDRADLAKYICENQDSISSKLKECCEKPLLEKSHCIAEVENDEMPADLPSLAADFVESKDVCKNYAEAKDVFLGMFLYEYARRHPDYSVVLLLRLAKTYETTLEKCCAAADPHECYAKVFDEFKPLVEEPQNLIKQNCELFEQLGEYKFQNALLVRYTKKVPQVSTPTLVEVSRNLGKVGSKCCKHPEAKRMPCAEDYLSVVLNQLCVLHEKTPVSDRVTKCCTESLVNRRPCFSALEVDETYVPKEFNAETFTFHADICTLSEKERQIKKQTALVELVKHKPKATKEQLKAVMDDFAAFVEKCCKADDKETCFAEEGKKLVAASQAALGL

| Kd [1] | Ki [2] | Compound |
| --- | --- | --- |
| 70100 ± 3200 nM | 1.53 ± 0.33 nM | COc1ccc(CCCC(=O)NCC(=O)N[C@@H](CCCCNC(=O)CN2CCN(CC(=O)O)CCN(CC(=O)O)CCN(CC(=O)O)CC2)C(=O)NCC2CCC(C(=O)N[C@@H](Cc3c4ccccc4cc4ccccc34)C(=O)NCCCC[C@H](NC(=O)N[C@@H](CCCC(=O)O)C(=O)O)C(=O)O)CC2)cc1 (stereo partly drawn) [HTK03170, reference compound] |
| 64900 ± 2200 nM | 0.12 ± 0.02 nM | COc1ccc(CCCC(=O)NCC(=O)N[C@@H](CCCCNC(=O)CN2CCN(CC(=O)O)CCN(CC(=O)O)CCN(CC(=O)O)CC2)C(=O)NCC(=O)NCC2CCC(C(=O)N[C@@H](Cc3c4ccccc4cc4ccccc34)C(=O)NCCCC[C@H](NC(=O)N[C@@H](CCCC(=O)O)C(=O)O)C(=O)O)CC2)cc1 (stereo partly drawn) [CCZ02009] ({Butanoyl(4-(4-MeO-phenyl))}-GK(DOTA)G[X1][Ala(9-anthryl)]-{AadUreaLys(Nε)}) |
|  | 2.08 nM | COc1ccc(CCCC(=O)NCC(=O)N[C@@H](CCCCNC(=O)COCCOCCNC(=O)CN2CCN(CC(N)=O)CCN(CC(=O)O)CCN(CC(=O)O)CC2)C(=O)NCC2CCC(C(=O)N[C@@H](Cc3c4ccccc4cc4ccccc34)C(=O)NCCCC[C@H](NC(=O)N[C@@H](CCCC(=O)O)C(=O)O)C(=O)O)CC2)cc1 (stereo partly drawn) [CCZ02005] |
|  | 1.09 ± 0.19 nM | COc1ccc(CCCC(=O)NCC(=O)N[C@@H](CCCCNC(=O)CN2CCN(CC(=O)O)CCN(CC(=O)O)CCN(CC(=O)O)CC2)C(=O)NCC(=O)NCC(=O)NCC2CCC(C(=O)N[C@@H](Cc3c4ccccc4cc4ccccc34)C(=O)NCCCC[C@H](NC(=O)N[C@@H](CCCC(=O)O)C(=O)O)C(=O)O)CC2)cc1 (stereo partly drawn) [CCZ02060] ({Butanoyl(4-(4-MeO-phenyl))}-GK(DOTA)GG[X1][Ala(9-anthryl)]-{AadUreaLys(Nε)}) |

From patent US20250186627A1, “RADIOLABELED COMPOUNDS TARGETING THE PROSTATE-SPECIFIC MEMBRANE ANTIGEN” (PROVINCIAL HEALTH SERVICES AUTHORITY, priority 2022, published 2025)
